From patent publication US20050165225A1, “Novel cytokine isolated from an insect” (priority 2003, published 2005)
Where no end group is shown, it is not given here.

How the values were obtained:
[1] = system: High five cells; experiment: Cell proliferation assay ([3H] thymidine incorporation); assay type: cell-based, Trichoplusia ni; conditions: serum-free Grace's medium, test substance ~1,000 nM, cultured 32 hours (FIG. 3)
Method: Cultured insect cells of “High five” was purchased from Invitrogen (Holland) and maintained in Grace's medium containing 5% fetus bovine serum. The cells during the exponential growth period were used in the following treatment. After the cells were cultured in a culture solution containing only Grace's medium (with no fetus bovine serum) for 2 days, they were divided into two groups. To one group (novel cytokine group), a peptide according to the present invention was added as a test substance in an amount of ˜1,000 nM. To the other group (control group), bovine serum albumin (BSA) was added as a test substance in an amount of ˜1000 nM. Both groups were cultured for 32 hours in Grace's medium containing 0.5 μCi of [^3H] thymidine. Subsequently, Both groups of cells were washed three times with a phosphate buffered saline (8 mM Na2HPO4, 1.5 mM KH2PO4, 137 mM NaCl, 2.7 mM KCL, pH 7.2). Thereafter, 100 μl of 0.3 N NaOH was added to both groups of cells to lyse the cells. The lysed cells were subjected to the liquid scintillation counter (Aloka LSC-5100 manufactured by Aloka, Japan). In this way, the radioactive count of [^3H] thymidine, which had been incorporated in the cells of each group during culturing, was determined.

[2] = system: hemocytes of a fly (Lucilia cuprina); experiment: Hemocyte aggregation assay; assay type: cell-based; conditions: 10 nM test substance, incubated for about 20 minutes, L. cuprina larval hemocytes, microscopy (FIG. 2)
Method: Preparation of Hemolymph for Use in Functional Analysis
Blood (hemolymph) was taken from the 3rd instar flies (Lucilia cuprina) after 24 to 36 hours from molting in an anti-coagulant solution (98 mM NaOH, 186 mM NaCl, 17 mM Na2 EDTA and 41 mM citric acid, pH 4.5). Hemolymph was obtained as sediment by centrifuging at 400 g for one minute, suspended in the anti-coagulation solution, incubated at 4° C. for 30 minutes, and subjected to centrifugal separation at 400 g for one minute to collect hemolymph. The hemolymph thus collected was resuspended in Ex-cell 400 medium (manufactured by JRH bioscience, USA)
Using hemolymph prepared above, an ability of a peptide according to the present invention for aggregating hemocytes was evaluated. 5 μl of a test substance (so as to obtain a final concentration of 10 nM) and 30 μl of a blood cell suspension solution were delivered to 96 wells of a culture plate so as to obtain a cell concentration of 1×10^4 cells/well. As the test substance, a peptide according to the present invention (a final concentration of 10 nM) or bovine serum albumin (a final concentration of 10 nM) as a control was used. The mixture was observed by an inverted phase-contrast microscope (Olympus IX-70) to detect hemocyte aggregation.

Row | Substance | [^3H] thymidine incorporation [1] | hemocyte aggregation [2]
1 | TILSAPSNCQQTDFKGRCL (cysteine pairing not given here) [19-residue peptide cytokine purified from hemolymph of Lucilia cuprina larvae] | increased in a pepetide-concentration dependent manner | hemocyte aggregation is observed
2 | bovine serum albumin (BSA): bovine serum albumin used as a control test substance | not increased | scattered without causing aggregation
